This note sets out measurements from patent EP2857388A1, “Azoles containing sulfone” (Grünenthal GmbH, priority 2013, dated 2015).

Each structure is given as a SMILES string.

This assay has as its target T1, human B1R (Homo sapiens, UniProt P46663).
T1 construct: expressed in transfected cells; host or cells: CHO K1 cells (Chinese Hamster Ovary), stably transfected
T1 sequence (P46663 1-353): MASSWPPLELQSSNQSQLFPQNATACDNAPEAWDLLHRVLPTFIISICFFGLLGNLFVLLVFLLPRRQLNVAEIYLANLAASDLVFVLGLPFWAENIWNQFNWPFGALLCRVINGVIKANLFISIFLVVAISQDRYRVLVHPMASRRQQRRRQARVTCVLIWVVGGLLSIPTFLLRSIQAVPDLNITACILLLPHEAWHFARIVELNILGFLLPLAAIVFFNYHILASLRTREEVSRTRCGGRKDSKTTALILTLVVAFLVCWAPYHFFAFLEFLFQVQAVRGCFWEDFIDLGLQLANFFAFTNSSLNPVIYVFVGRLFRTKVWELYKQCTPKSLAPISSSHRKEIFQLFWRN
The assay can be described thus: Functional assay at bradykinin receptor 1 (B1R): Ca2+ fluorescence (Fluo-4) in FLIPR/Novostar, antagonist mode. The conditions noted are these: test substance 10 µM; CHO K1 cells stably transfected with human B1R gene (hB1R-Zellen); agonist Lys-Des-Arg9-Bradykinin at EC80; % inhibition relative to maximal achievable inhibition; read-out: % Inhibierung (human B1R) bei 10 µM. In kind it is cell-based. The procedure, abridged: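 Antagonism read as suppression of the Ca2+ rise in Fluo-4-loaded, hB1R-transfected CHO K1 cells when Lys-Des-Arg9-bradykinin (EC80) follows a 6–20 min compound preincubation. Maximal fluorescence counts, measured on FLIPR or Novostar, yield % inhibition relative to maximum; IC50 values come from concentration series run in duplicate or triplicate.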

Regarding `COc1cc(C)c(S(=O)(=O)Cc2nnc(CC(=O)N(C)C3CCNCC3(C)C)o2)c(C)c1` (stereo not drawn) [CC-88, N-(3,3-Dimethyl-piperidin-4-yl)-2-[5-[[(4-methoxy-2,6-dimethyl-phenyl)sulfonyl]-methyl]-[1,3,4]oxadiazol-2-yl]-N-methyl-acetamid], the inhibition at 10 µM amounted to 97%.

`Cc1cccc(Cl)c1S(=O)(=O)Cc1noc(CC(=O)NC2CCNCC2)n1` [CC-90, 2-[3-[[(2-Chlor-6-methyl-phenyl)sulfonyl]-methyl]-[1,2,4]oxadiazol-5-yl]-N-piperidin-4-yl-acetamid]: the inhibition at 10 µM was 72%.

For `Cc1cccc(Cl)c1S(=O)(=O)Cc1noc(CC(=O)NC2CCC(N3CCCC3)CC2(C)C)n1` (stereo not drawn) [CC-91, 2-[3-[[(2-Chlor-6-methyl-phenyl)sulfonyl]-methyl]-[1,2,4]oxadiazol-5-yl]-N-(2,2-dimethyl-4-pyrrolidin-1-yl-cyclohexyl)-acetamid], the inhibition at 10 µM worked out at 97%.

As to `Cc1cccc(Cl)c1S(=O)(=O)Cc1noc(CC(=O)NC2CCC(N3CCCC3)CC2)n1` (stereo not drawn) [CC-93, 2-[3-[[(2-Chlor-6-methyl-phenyl)sulfonyl]-methyl]-[1,2,4]oxadiazol-5-yl]-N-(4-pyrrolidin-1-yl-cyclohexyl)-acetamid], the inhibition at 10 µM came to 100%.

Take `COCCN1CCC(NC(=O)Cc2nc(CS(=O)(=O)c3c(C)cccc3Cl)no2)C(C)(C)C1` (stereo not drawn) [CC-94, 2-[3-[[(2-Chlor-6-methyl-phenyl)sulfonyl]-methyl]-[1,2,4]oxadiazol-5-yl]-N-[1-(2-methoxy-ethyl)-3,3-dimethyl-piperidin-4-yl]-acetamid]: the inhibition at 10 µM amounted to 100%.

`Cc1cccc(Cl)c1S(=O)(=O)Cc1noc(CC(=O)NC2CCC(NC3CC3)CC2(C)C)n1` (stereo not drawn) [CC-95, 2-[3-[[(2-Chlor-6-methyl-phenyl)sulfonyl]-methyl]-[1,2,4]oxadiazol-5-yl]-N-[4-(cyclopropylamino)-2,2-dimethyl-cyclohexyl]-acetamid]: the inhibition at 10 µM was found to be 100%.

As for `Cc1cccc(Cl)c1S(=O)(=O)Cc1noc(CC(=O)NC2CCN(C)CC2(C)C)n1` (stereo not drawn) [CC-96, 2-[3-[[(2-Chlor-6-methyl-phenyl)sulfonyl]-methyl]-[1,2,4]oxadiazol-5-yl]-N-(1,3,3-trimethyl-piperidin-4-yl)-acetamid], the inhibition at 10 µM was 100%.

For `COc1cc(C)c(S(=O)(=O)Cc2nnc(CC(=O)NC3CCNCC3)o2)c(C)c1` [CC-97, 2-[5-[[(4-Methoxy-2,6-dimethyl-phenyl)sulfonyl]-methyl]-[1,3,4]oxadiazol-2-yl]-N-piperidin-4-yl-acetamid], the inhibition at 10 µM came out at 98%.

On to `Cc1cccc(Cl)c1S(=O)(=O)Cc1noc(CC(=O)NC2CCC(N3CCN(C)CC3)CC2(C)C)n1` (stereo not drawn) [CC-98, 2-[3-[[(2-Chlor-6-methyl-phenyl)sulfonyl]-methyl]-[1,2,4]oxadiazol-5-yl]-N-[2,2-dimethyl-4-(4-methyl-piperazin-1-yl)-cyclohexyl]-acetamid], for which the inhibition at 10 µM came out at 100%.

In the case of `Cc1cc(S(=O)(=O)Cc2noc(CC(=O)N(C)C3CCNCC3(C)C)n2)c(C)cc1Cl` (stereo not drawn) [CC-100, 2-[3-[[(4-Chlor-2,5-dimethyl-phenyl)sulfonyl]-methyl]-[1,2,4]oxadiazol-5-yl]-N-(3,3-dimethyl-piperidin-4-yl)-N-methyl-acetamid], the inhibition at 10 µM was determined as 58%.

For the compound `COc1cc(C)c(S(=O)(=O)Cc2nc(CC(=O)N(C)C3CCNCC3(C)C)no2)c(C)c1` (stereo not drawn) [CC-101, N-(3,3-Dimethyl-piperidin-4-yl)-2-[5-[[(4-methoxy-2,6-dimethyl-phenyl)sulfonyl]-methyl]-[1,2,4]oxadiazol-3-yl]-N-methyl-acetamid], the inhibition at 10 µM stood at 100%.

Take `COc1cc(C)c(S(=O)(=O)Cc2nc(CC(=O)NC3CCN(C)CC3(C)C)no2)c(C)c1` (stereo not drawn) [CC-102, 2-[5-[[(4-Methoxy-2,6-dimethyl-phenyl)sulfonyl]-methyl]-[1,2,4]oxadiazol-3-yl]-N-(1,3,3-trimethyl-piperidin-4-yl)-acetamid]: the inhibition at 10 µM worked out at 100%.

On to `Cc1cc(S(=O)(=O)Cc2noc(CC(=O)NC3CCN(C)CC3(C)C)n2)c(C)cc1Cl` (stereo not drawn) [CC-105, 2-[3-[[(4-Chlor-2,5-dimethyl-phenyl)sulfonyl]-methyl]-[1,2,4]oxadiazol-5-yl]-N-(1,3,3-trimethyl-piperidin-4-yl)-acetamid], for which the inhibition at 10 µM amounted to 88%.

With `CC1(C)CC(N2CCCC2)CCC1NC(=O)Cc1nc(CS(=O)(=O)c2cccc(Cl)c2Cl)no1` (stereo not drawn) [CC-106, 2-[3-[[(2,3-Dichlor-phenyl)sulfonyl]-methyl]-[1,2,4]oxadiazol-5-yl]-N-(2,2-dimethyl-4-pyrrolidin-1-yl-cyclohexyl)-acetamid], the inhibition at 10 µM is 82%.

For the compound `Cc1cccc(Cl)c1S(=O)(=O)Cc1noc(CC(=O)N(C2CCC(N(C)C)CC2)C2CC2)n1` (stereo not drawn) [CC-108, 2-[3-[[(2-Chlor-6-methyl-phenyl)sulfonyl]-methyl]-[1,2,4]oxadiazol-5-yl]-N-cyclopropyl-N-(4-dimethylamino-cyclohexyl)-acetamid], the inhibition at 10 µM amounted to 88%.

As for `CC1(C)CC(c2ccncc2)CCC1NC(=O)Cc1nc(CS(=O)(=O)c2cccc(Cl)c2Cl)no1` (stereo not drawn) [CC-109, 2-[3-[[(2,3-Dichlor-phenyl)sulfonyl]-methyl]-[1,2,4]oxadiazol-5-yl]-N-(2,2-dimethyl-4-pyridin-4-yl-cyclohexyl)-acetamid], the inhibition at 10 µM is 100%.

In the case of `Cc1cccc(Cl)c1S(=O)(=O)Cc1noc(CC(=O)N(C)C2CCNCC2(C)C)n1` (stereo not drawn) [CC-110, 2-[3-[[(2-Chlor-6-methyl-phenyl)sulfonyl]-methyl]-[1,2,4]oxadiazol-5-yl]-N-(3,3-dimethyl-piperidin-4-yl)-N-methyl-acetamid], the inhibition at 10 µM was found to be 87%.

On to `COc1cc(C)c(S(=O)(=O)Cc2nnc(CC(=O)NC3CCN(C)CC3(C)C)o2)c(C)c1` (stereo not drawn) [CC-111, 2-[5-[[(4-Methoxy-2,6-dimethyl-phenyl)sulfonyl]-methyl]-[1,3,4]oxadiazol-2-yl]-N-(1,3,3-trimethyl-piperidin-4-yl)-acetamid], for which the inhibition at 10 µM came to 100%.

As for `CN(C)C1CCC(N(C(=O)Cc2nc(CS(=O)(=O)c3cccc(Cl)c3Cl)no2)C2CC2)CC1` (stereo not drawn) [CC-112, N-Cyclopropyl-2-[3-[[(2,3-dichlor-phenyl)sulfonyl]-methyl]-[1,2,4]oxadiazol-5-yl]-N-(4-dimethyl-amino-cyclohexyl)-acetamid], the inhibition at 10 µM turned out to be 67%.

Turning to `COc1cc(C)c(S(=O)(=O)Cc2nc(CC(=O)N(C3CCC(N(C)C)CC3)C3CC3)no2)c(C)c1` (stereo not drawn) [CC-116, N-Cyclopropyl-N-(4-dimethylamino-cyclohexyl)-2-[5-[[(4-methoxy-2,6-dimethyl-phenyl)sulfonyl]-methyl]-[1,2,4]oxadiazol-3-yl]-acetamid], the inhibition at 10 µM is 100%.

On to `COc1cc(C)c(S(=O)(=O)Cc2c(C)nn(CC(=O)N(C3CCC(N(C)C)CC3)C3CC3)c2C)c(C)c1` (stereo not drawn) [CC-118, N-Cyclopropyl-N-(4-dimethylamino-cyclohexyl)-2-[4-[[(4-methoxy-2,6-dimethyl-phenyl)sulfonyl]-methyl]-3,5-dimethyl-1H-pyrazol-1-yl]-acetamid], for which the inhibition at 10 µM stood at 93%.

With `COc1cc(C)c(S(=O)(=O)Cc2nnc(CC(=O)N(C3CCC(N(C)C)CC3)C3CC3)o2)c(C)c1` (stereo not drawn) [CC-124, N-Cyclopropyl-N-(4-dimethylamino-cyclohexyl)-2-[5-[[(4-methoxy-2,6-dimethyl-phenyl)sulfonyl]-methyl]-[1,3,4]oxadiazol-2-yl]-acetamid], the inhibition at 10 µM was determined as 100%.

As for `COc1cc(C)c(S(=O)(=O)Cc2cc(C)n(CC(=O)NC3CCC(c4ccncc4)CC3(C)C)n2)c(C)c1` (stereo not drawn) [CC-127, N-(2,2-Dimethyl-4-pyridin-4-yl-cyclohexyl)-2-[3-[[(4-methoxy-2,6-dimethyl-phenyl)sulfonyl)-methyl]-5-methyl-1 H-pyrazol-1-yl]-acetamid], the inhibition at 10 µM amounted to 68%.

Turning to `COc1cc(C)c(S(=O)(=O)Cc2noc(C(=O)N3CCC(N4CCN(C)CC4)CC3)n2)c(C)c1` [CC-129, [3-[[(4-Methoxy-2,6-dimethyl-phenyl)sulfonyl]-methyl]-[1,2,4]oxadiazol-5-yl]-[4-(4-methyl-piperazin-1-yl)-piperidin-1-yl]-methanon], the inhibition at 10 µM stood at 100%.

As for `COc1cc(C)c(S(=O)(=O)Cc2noc(CC(=O)N3CCC4(CCN(C)C4)C3)n2)c(C)c1` (stereo not drawn) [CC-130, 2-[3-[[(4-Methoxy-2,6-dimethyl-phenyl)sulfonyl]-methyl]-[1,2,4]oxadiazol-5-yl]-1-(2-methyl-2,8-diazaspiro[4.4]nonan-8-yl)-ethanon], the inhibition at 10 µM was determined as 99%.

Consider `COc1cc(C)c(S(=O)(=O)Cc2noc(CC(=O)N3CCC(N4CCN(C)CC4)CC3)n2)c(C)c1` [CC-131, 2-[3-[[(4-Methoxy-2,6-dimethyl-phenyl)sulfonyl]-methyl]-[1,2,4]oxadiazol-5-yl]-1-[4-(4-methyl-piperazin-1-yl)-piperidin-1-yl]-ethanon], for which the inhibition at 10 µM was 100%.

Consider `COc1cc(C)c(S(=O)(=O)Cc2noc(CC(=O)N3CCN(c4ccncc4)CC3)n2)c(C)c1` [CC-133, 2-[3-[[(4-Methoxy-2,6-dimethyl-phenyl)sulfonyl]-methyl]-[1,2,4]oxadiazol-5-yl]-1-(4-pyridin-4-yl-piperazin-1-yl)-ethanon], for which the inhibition at 10 µM worked out at 100%.
